What was measured:
[1] = tested on: H9c2 cells; test: Menadione-induced toxicity (LDH) in H9c2 cells; format: cell-based, rat
Procedure: (§1) H9c2 cells, a permanent cell line derived from cardiac myoblasts of rat embryo, have early been characterized as a suitable model of myocardial cells [Hescheler et al. 1991]. H9c2 cells were cultured as monolayers in Dulbecco's modified Eagle's medium (GIBCO BRL) supplemented with 10% (v/v) fetal bovine serum. The medium contained glucose (4.5 g/L) and glutamine (4.5 mM), supplemented with NaHCO3 (17 mM), penicillin (100 IU/ml), and streptomycin (100 μg/ml). Cells were grown under an atmosphere of 5% CO2 in air at 37° C. The medium was replaced by fresh medium every 2 or 3 days. A stock of cells was grown in a 75 cm culture flask and split before confluence at a subcultivation ratio of 1:10. Cells used for experiments were seeded at a density of 3.75×10^4 cells/well on a 12-well culture plate, and the cells were grown for 24 h to about 80% confluence prior to drug treatment.
(§2) Cultured H9c2 cells were treated with (−) Schisandrin B, (+) Schisandrin B or (±) Schisandrin B (dissolved in DMSO) at 6.25 μM (0.2% DMSO final concentration) for 16 h. Control cells were given the vehicle (i.e. DMSO) only. Immediately following the drug or vehicle pretreatment, the cells were challenged with menadione (dissolved in ethanol) at 12.5 μM (0.2% ethanol final concentration) for 4 h. The control cells were treated with the medium containing 0.2% ethanol only. After the menadione challenge, the medium was taken for the measurement of LDH activity, an biochemical index of cell injury.

[2] = tested on: H9c2 cells; test: Cellular GSH level in H9c2 cells, time course, with or without xanthine/xanthine oxidase (X/XO) challenge; format: cell-based, rat; conditions: 6.25 μM
Procedure: as §1
(§3) Cultured H9c2 cells were treated with (−) Schisandrin B, (+) Schisandrin B or (±) Schisandrin B (dissolved in DMSO) at 6.25 μM (0.2% DMSO final concentration) for increasing periods of time. Control cells were given the vehicle (i.e. DMSO) only. Immediately following the drug or vehicle pretreatment, the cells were challenged with a mixture of xanthine (X) (0.1 mM) and xanthine oxidase (XO) (0.4 U/ml) for 4 h. The control cells were treated with the medium only. After the X/XO challenge, the medium was taken for the measurement of LDH activity, a biochemical index of cellular injury.
(§4) The cells were washed twice with 0.5 ml cold phosphate-buffered saline (PBS), An aliquot (200 μl) of 3% sulfonsalicyclic acid was then added, and the mixture was incubate at 4° C. for 10 min. After centrifuging at 300 g for 15 min at 4° C., the supernatant was used for GSH measurement by an enzymatic method of Griffith (1980).

[3] = tested on: H9c2 cells; test: Xanthine/xanthine oxidase-induced cytotoxicity (LDH leakage) in H9c2 cells; format: cell-based, rat; conditions: X/XO challenge, 6.25 μM
Procedure: as §1, §3

[4] = tested on: H9c2 cells; test: Cellular GSH level in H9c2 cells with or without menadione challenge; format: cell-based, rat
Procedure: as §1, §2, §4

[5] = tested on: Hsp70; test: Hsp70 expression in H9c2 cells (Western blot); format: cell-based, rat; conditions: 6.25 μM
Procedure: as §1
(§5) Cultured H9c2 cells were treated with (−) Schisandrin B, (+) Schisandrin B or (±) Schisandrin B (dissolved in DMSO) at 6.25 μM (0.2% DMSO final concentration) for increasing periods of time. Control cells were given the vehicle (i.e. DMSO) only.
(§6) Immediately following the drug treatment, the cells were washed twice with 0.5 ml cold PBS and treated with 100 μl lysis buffer containing 20 mM Tris HCl, 3 mM EGTA, 1% Triton X-100, 10% glycerol and 2 mM dithiothreitol, pH 7.5, with freshly added protease inhibitors (1 mM phenylmethylsulfonyl fluoride, 0.1 mM benzamide, 5 μg/ml leupeptin, 5 μg aproptinin and 5 μg/ml pepstain A). The mixture was incubated at 4° C. for 15 min with constant shaking. Then the cells were scraped off from the plate, and the extract was transferred to a microcentrifuge tube for centrifugation at 2,400 g for 3 min at 4° C. The resultant supernatant was used for Hsp analysis. Hsp25 and Hsp70 levels was estimated by Western blot analysis using specific antibodies (anti-Hsp25, catalog #SPA-801; anti-Hsp70, catalog #SPA-812) from StressGen (Vancouver, BC, Canada) following SDS-PAGE analysis cell lysates, using a separating gel of 10% acrylamide as described in Ip et. al. [2001]. Hsp25/27 and Hsp70 (human recombinant proteins from StressGen) and actin (bovine muscle from Sigma) were used as markers for reference. […] All immuno-blots were analyzed by densitometry, and the amounts (arbitrary units) of Hsp were normalized with reference to actin levels (arbitrary units) in the sample.

[6] = tested on: Hsp25; test: Hsp25 expression in H9c2 cells (Western blot); format: cell-based, rat; conditions: 6.25 μM
Procedure: as §1, §5, §6

[7] = tested on: mitochondria of brain, heart, liver and skeletal muscle; test: Mitochondrial ATP generation capacity in various tissues of young female rats; format: in vivo, rat; conditions: 15 days; for ATP generation: (−) Sch B, α-LA, α-Toc at daily 10, 5 and 70 mg/kg respectively; for effect on mitochondrial ATP generation capacity in various tissues: α-LA 5 mg/kg, α-Toc 70 mg/kg daily
[8] = tested on: mitochondria of brain, heart, liver and skeletal muscle; test: Mitochondrial antioxidant status in various tissues of young female rats; format: in vivo, rat; conditions: (−) Sch B, α-LA, α-Toc at daily 10, 5 and 70 mg/kg respectively, 15 days
Procedure: The dosages were determined with reference to the equivalent amount of crude herb prescribed for human or the daily recommended intake in health supplements. The control animals received olive oil only. Twenty-four hours after the last dose, the pentobarbital-anesthetized animals were sacrificed by cardiac excision, and brain. heart, liver and skeletal muscle tissues were obtained. Tissue samples (brain, heart, liver, and skeletal muscle) were rinsed with ice-cold isotonic buffer (50 mM Tris, 0.32 M sucrose, 1 mM Na2EDTA, 0.2 mg/ml soybean trypsin inhibitor, 0.2 mg/ml bacitracine, 0.16 mg/ml benzamidine). Tissue homogenates were prepared by homogenizing 0.8 g of myocardial tissue in 8 ml ice-cold isotonic buffer and the homogenates were used for the preparation of mitochondrial fractions by differential centrifugation, as described in Chiu and Ko (2004). The mitochondrial pellets were resuspended in 1.5 ml of isotonic buffer containing 150 μl of 2 mg/ml soybean trypsin inhibitor and constituted the mitochondrial fractions. […] (St. Louis, Mo., USA). […] Aliquots (400 μl) of mitochondrial fractions were mixed with 933 μl Triton X-100 solution (0.3%, v/v, in isotonic buffer) and sonicated for 2 min on ice. The mixtures were then subjected to measurements of mitochondrial glutathione reductase (GRD), Se-glutathione peroxidase (GPX) and glutathione S-transferases (GST) activities by spectrophotometric methods, as described in Chiu et al. (2002).

[9] = MENADIONE 12.5 μM for 4 h, drug 6.25 μM for 16 h
[10] = NON-MENADIONE, 6.25 μM for 16 h
[11] = X/XO challenge, 16 h post-dosing
[12] = 0 h post-dosing (unpretreated control)

COc1cc2c(c(OC)c1OC)-c1c(cc3c(c1OC)OCO3)CC(C)C(C)C2 (racemic) [(±) Sch B, (±) Schisandrin B]
LDH [1, 9]: 23.6 ± 0.56 U/ml
LDH, percent protection vs menadione control [1, 9]: (43%)
LDH [1, 10]: 14.6 ± 0.67 U/ml
GSH Level ([2]; NON-X/XO, 0 h post-dosing (unpretreated control)): 38.3 ± 1.16 nmol/mg protein
GSH Level ([2]; NON-X/XO, 4 h post-dosing): 44.1 ± 3.60 nmol/mg protein
GSH Level ([2]; NON-X/XO, 8 h post-dosing): 46.2 ± 1.90 nmol/mg protein
GSH Level ([2]; NON-X/XO, 16 h post-dosing): 85.8 ± 2.57 nmol/mg protein
GSH Level, percent increase vs unpretreated control (0 h) ([2]; NON-X/XO, 16 h post-dosing): (124%)
GSH Level ([2]; NON-X/XO, 24 h post-dosing): 76.6 ± 0.88 nmol/mg protein
GSH Level ([2]; NON-X/XO, 48 h post-dosing): 58.8 ± 6.54 nmol/mg protein
GSH Level ([2]; X/XO challenge, 0 h post-dosing (unpretreated control)): 14.5 ± 1.06 nmol/mg protein
GSH Level ([2]; X/XO challenge, 4 h post-dosing): 15.8 ± 0.49 nmol/mg protein
GSH Level ([2]; X/XO challenge, 8 h post-dosing): 16.7 ± 1.32 nmol/mg protein
GSH Level [2, 11]: 22.3 ± 0.15 nmol/mg protein
GSH Level, percent increase vs unpretreated control (0 h) [2, 11]: (54%)
GSH Level ([2]; X/XO challenge, 24 h post-dosing): 18.9 ± 0.50 nmol/mg protein
GSH Level ([2]; X/XO challenge, 48 h post-dosing): 14.3 ± 1.04 nmol/mg protein
LDH Leakage [3, 12]: 33.9 ± 0.93 U/L
LDH Leakage ([3]; 4 h post-dosing): 28.7 ± 1.35 U/L
LDH Leakage ([3]; 8 h post-dosing): 22.8 ± 0.45 U/L
LDH Leakage ([3]; 16 h post-dosing): 15.8 ± 0.91 U/L
LDH Leakage, percent protection vs unpretreated control (0 h) ([3]; 16 h post-dosing): (65%)
LDH Leakage ([3]; 24 h post-dosing): 20.1 ± 0.76 U/L
LDH Leakage ([3]; 48 h post-dosing): 29.2 ± 0.57 U/L
GSH Level [4, 9]: 28.9 ± 0.66 nmol/mg protein
GSH Level, percent increase vs menadione control [4, 9]: (56%)
GSH Level [4, 10]: 46.5 ± 2.58 nmol/mg protein
GSH Level, percent increase vs non-menadione control [4, 10]: (34%)
Hsp 70 Level [5, 12]: 434 ± 15.5 AU
Hsp 70 Level ([5]; 8 h post-dosing): 389 ± 24.7 AU
Hsp 70 Level ([5]; 16 h post-dosing): 652 ± 23.9 AU
Hsp 70 Level ([5]; 24 h post-dosing): 639 ± 23.4 AU
Hsp 70 Level, percent increase vs unpretreated control (0 h) ([5]; 24 h post-dosing): (47%)
Hsp 70 Level ([5]; 48 h post-dosing): 419 ± 15.4 AU
Hsp 25 Level [6, 12]: 1413 ± 76 AU
Hsp 25 Level ([6]; 8 h post-dosing): 1512 ± 39 AU
Hsp 25 Level ([6]; 16 h post-dosing): 1611 ± 93 AU
Hsp 25 Level ([6]; 24 h post-dosing): 1728 ± 101 AU
Hsp 25 Level, percent increase vs unpretreated control (0 h) ([6]; 24 h post-dosing): (24%)
Hsp 25 Level ([6]; 48 h post-dosing): 1332 ± 77 AU

O=C(O)CCCCC1CCSS1 (stereo not drawn) [α-LA, α-lipoic acid]
ATP generation ([7]; BRAIN): 72 ± 4 percent control
ATP generation ([7]; HEART): 68 ± 9 percent control
ATP generation ([7]; LIVER): 77 ± 5 percent control
ATP generation ([7]; SKELETAL MUSCLE): 101 ± 1 percent control
effect on mitochondrial ATP generation capacity in various tissues [7]: decreased
GPX ([8]; BRAIN): 126 ± 9 percent control
GRD ([8]; BRAIN): 131 ± 5 percent control
GSH ([8]; BRAIN): 93 ± 2 percent control
GST ([8]; BRAIN): 103 ± 3 percent control
α-Toc level ([8]; BRAIN): 110 ± 6 percent control
GPX ([8]; HEART): 105 ± 9 percent control
GRD ([8]; HEART): 144 ± 11 percent control
GSH ([8]; HEART): 103 ± 4 percent control
GST ([8]; HEART): 119 ± 6 percent control
α-Toc level ([8]; HEART): 111 ± 4 percent control
GPX ([8]; LIVER): 159 ± 10 percent control
GRD ([8]; LIVER): 143 ± 8 percent control
GSH ([8]; LIVER): 117 ± 2 percent control
GST ([8]; LIVER): 112 ± 3 percent control
α-Toc level ([8]; LIVER): 124 ± 13 percent control
GPX ([8]; SKELETAL MUSCLE): 117 ± 5 percent control
GRD ([8]; SKELETAL MUSCLE): 123 ± 12 percent control
GSH ([8]; SKELETAL MUSCLE): 154 ± 12 percent control
GST ([8]; SKELETAL MUSCLE): 171 ± 19 percent control
α-Toc level ([8]; SKELETAL MUSCLE): 147 ± 14 percent control

Cc1c(C)c2c(c(C)c1O)CC[C@@](C)(CCC[C@H](C)CCC[C@H](C)CCCC(C)C)O2 [α-Toc, α-tocopherol]
ATP generation ([7]; BRAIN): 62 ± 8 percent control
ATP generation ([7]; HEART): 95 ± 12 percent control
ATP generation ([7]; LIVER): 83 ± 8 percent control
ATP generation ([7]; SKELETAL MUSCLE): 80 ± 8 percent control
effect on mitochondrial ATP generation capacity in various tissues [7]: decreased
GPX ([8]; BRAIN): 121 ± 12 percent control
GRD ([8]; BRAIN): 153 ± 10 percent control
GSH ([8]; BRAIN): 119 ± 6 percent control
GST ([8]; BRAIN): 121 ± 5 percent control
α-Toc level ([8]; BRAIN): 139 ± 9 percent control
GPX ([8]; HEART): 130 ± 10 percent control
GRD ([8]; HEART): 243 ± 20 percent control
GSH ([8]; HEART): 152 ± 9 percent control
GST ([8]; HEART): 159 ± 7 percent control
α-Toc level ([8]; HEART): 151 ± 5 percent control
GPX ([8]; LIVER): 169 ± 14 percent control
GRD ([8]; LIVER): 161 ± 5 percent control
GSH ([8]; LIVER): 133 ± 11 percent control
GST ([8]; LIVER): 128 ± 3 percent control
α-Toc level ([8]; LIVER): 214 ± 31 percent control
GPX ([8]; SKELETAL MUSCLE): 136 ± 7 percent control
GRD ([8]; SKELETAL MUSCLE): 149 ± 8 percent control
GSH ([8]; SKELETAL MUSCLE): 153 ± 6 percent control
GST ([8]; SKELETAL MUSCLE): 176 ± 13 percent control
α-Toc level ([8]; SKELETAL MUSCLE): 189 ± 11 percent control
